Results: ChEMBL document CHEMBL5303573, “Mapping human microbiome drug metabolism by gut bacteria and their genes” (Nature, 2019)

Key:
[1] = limosilactobacillus reuteri cf48-3a, 12 h, 2 µM
Description: The drug is tested on Lactobacillus reuteri CF48-3A strain: BEI HM-102 for biotransformation. The drug concentrations were measured before and after a 12-h incubation by liquid-chromatography-coupled mass spectrometry (LC–MS)

[2] = The drug is tested on Bifidobacterium breve strain: DSM20213 for biotransformation. The drug concentrations were measured before and after a 12-h incubation by liquid-chromatography-coupled mass spectrometry (LC–MS); conditions: 2 µM
[3] = The drug is tested on Anaerotruncus colihominis strain: DSM17241 for biotransformation. The drug concentrations were measured before and after a 12-h incubation by liquid-chromatography-coupled mass spectrometry (LC–MS); conditions: 2 µM
[4] = The drug is tested on Bacteroides fragilis strain: ATCC43859 for biotransformation. The drug concentrations were measured before and after a 12-h incubation by liquid-chromatography-coupled mass spectrometry (LC–MS); conditions: 2 µM
[5] = bacteroides eggerthii, 12 h, 2 µM
Description: The drug is tested on Bacteroides eggerthii strain: DSM20697 for biotransformation. The drug concentrations were measured before and after a 12-h incubation by liquid-chromatography-coupled mass spectrometry (LC–MS)

[6] = The drug is tested on Bacteroides sp. WH2 strain: WH2 for biotransformation. The drug concentrations were measured before and after a 12-h incubation by liquid-chromatography-coupled mass spectrometry (LC–MS); conditions: bacteroides sp. wh2, 12 h, 2 µM
[7] = The drug is tested on Eubacterium rectale strain: ATCC33656 for biotransformation. The drug concentrations were measured before and after a 12-h incubation by liquid-chromatography-coupled mass spectrometry (LC–MS); conditions: agathobacter rectalis, 2 µM
[8] = The drug is tested on Bacteroides xylanisolvens strain: DSM18836 for biotransformation. The drug concentrations were measured before and after a 12-h incubation by liquid-chromatography-coupled mass spectrometry (LC–MS); conditions: 2 µM
[9] = The drug is tested on Ruminococcus lactaris strain: ATCC29176 for biotransformation. The drug concentrations were measured before and after a 12-h incubation by liquid-chromatography-coupled mass spectrometry (LC–MS); conditions: 2 µM
[10] = The drug is tested on Eubacterium ventriosum strain: ATCC27560 for biotransformation. The drug concentrations were measured before and after a 12-h incubation by liquid-chromatography-coupled mass spectrometry (LC–MS); format: ADME; parameters: dose 2 uM, timepoint 0 vs 12 hours; conditions: 2 µM
[11] = The drug is tested on Bacteroides cellulosilyticus strain: DSM14838 for biotransformation. The drug concentrations were measured before and after a 12-h incubation by liquid-chromatography-coupled mass spectrometry (LC–MS); conditions: 2 µM
[12] = The drug is tested on Clostridium scindens strain: ATCC35704 for biotransformation. The drug concentrations were measured before and after a 12-h incubation by liquid-chromatography-coupled mass spectrometry (LC–MS); conditions: 2 µM
[13] = enterocloster bolteae, 12 h, 2 µM
Description: The drug is tested on Clostridium bolteae strain: ATCCBAA-613 for biotransformation. The drug concentrations were measured before and after a 12-h incubation by liquid-chromatography-coupled mass spectrometry (LC–MS)

[14] = The drug is tested on Eubacterium hallii strain: DSM3353 for biotransformation. The drug concentrations were measured before and after a 12-h incubation by liquid-chromatography-coupled mass spectrometry (LC–MS); conditions: anaerobutyricum hallii, 2 µM
[15] = The drug is tested on Bacteroides fragilis strain: HMW615 for biotransformation. The drug concentrations were measured before and after a 12-h incubation by liquid-chromatography-coupled mass spectrometry (LC–MS); conditions: 2 µM
[16] = bacteroides stercoris, 12 h, 2 µM
Description: The drug is tested on Bacteroides stercoris strain: ATCC43183 for biotransformation. The drug concentrations were measured before and after a 12-h incubation by liquid-chromatography-coupled mass spectrometry (LC–MS)

[17] = bifidobacterium adolescentis, 12 h, 2 µM
Description: The drug is tested on Bifidobacterium adolescentis strain: ATCC 15703 for biotransformation. The drug concentrations were measured before and after a 12-h incubation by liquid-chromatography-coupled mass spectrometry (LC–MS)

[18] = The drug is tested on Odoribacter splanchnicus strain: fecal isolate for biotransformation. The drug concentrations were measured before and after a 12-h incubation by liquid-chromatography-coupled mass spectrometry (LC–MS); conditions: 2 µM

Row | SMILES | Bacterial Biotransformation [1] | Bacterial Biotransformation [2] | Bacterial Biotransformation [3] | Bacterial Biotransformation [4] | Bacterial Biotransformation [5] | Bacterial Biotransformation [6] | Bacterial Biotransformation [7] | Bacterial Biotransformation [8] | Bacterial Biotransformation [9] | Bacterial Biotransformation [10] | Bacterial Biotransformation [11] | Bacterial Biotransformation [12] | Bacterial Biotransformation [13] | Bacterial Biotransformation [14] | Bacterial Biotransformation [15] | Bacterial Biotransformation [16] | Bacterial Biotransformation [17] | Bacterial Biotransformation [18]
1 | O=C(O)COCCN1CCN(C(c2ccccc2)c2ccc(Cl)cc2)CC1 (centres undefined) [CETIRIZINE] | Compound NOT metabolized | Compound NOT metabolized | Compound NOT metabolized | Compound metabolized | Compound metabolized | Compound NOT metabolized | Compound NOT metabolized | Compound metabolized | Compound NOT metabolized | Compound NOT metabolized | Compound metabolized | Compound NOT metabolized | Compound NOT metabolized | Compound NOT metabolized | Compound metabolized | Compound metabolized |  | 
2 | CCN(CC)CCNC(=O)c1ccc(NC(C)=O)cc1 [ACECAINIDE] |  | Compound NOT metabolized | Compound NOT metabolized | Compound metabolized |  | Compound NOT metabolized | Compound NOT metabolized | Compound NOT metabolized | Compound NOT metabolized | Compound NOT metabolized |  | Compound NOT metabolized | Compound NOT metabolized | Compound NOT metabolized | Compound NOT metabolized |  | Compound NOT metabolized | 
3 | O=C1CN2Cc3c(ccc(Cl)c3Cl)N=C2N1 [ANAGRELIDE] |  | Compound NOT metabolized | Compound NOT metabolized | Compound NOT metabolized | Compound NOT metabolized | Compound NOT metabolized |  | Compound NOT metabolized | Compound NOT metabolized | Compound NOT metabolized | Compound NOT metabolized | Compound NOT metabolized | Compound NOT metabolized | Compound NOT metabolized | Compound NOT metabolized | Compound NOT metabolized | Compound NOT metabolized | Compound metabolized
4 | CCCC(C)(COC(N)=O)COC(=O)NC(C)C (centres undefined) [CARISOPRODOL] |  | Compound NOT metabolized |  | Compound metabolized |  | Compound NOT metabolized | Compound NOT metabolized | Compound metabolized |  | Compound metabolized | Compound metabolized | Compound NOT metabolized | Compound NOT metabolized | Compound NOT metabolized | Compound metabolized | Compound metabolized |  | 
5 | CC(C)(C#N)c1cc(Cn2cncn2)cc(C(C)(C)C#N)c1 [ANASTROZOLE] | Compound NOT metabolized | Compound NOT metabolized | Compound NOT metabolized |  | Compound metabolized | Compound NOT metabolized | Compound NOT metabolized | Compound metabolized | Compound NOT metabolized | Compound NOT metabolized | Compound NOT metabolized | Compound NOT metabolized | Compound NOT metabolized | Compound NOT metabolized | Compound NOT metabolized | Compound metabolized | Compound NOT metabolized | Compound metabolized
6 | CN(C)CCC=C1c2ccccc2C=Cc2ccccc21 [CYCLOBENZAPRINE] | Compound NOT metabolized | Compound NOT metabolized | Compound NOT metabolized |  | Compound NOT metabolized | Compound NOT metabolized | Compound NOT metabolized | Compound NOT metabolized | Compound NOT metabolized | Compound NOT metabolized |  | Compound NOT metabolized | Compound NOT metabolized | Compound NOT metabolized | Compound NOT metabolized | Compound NOT metabolized | Compound NOT metabolized | Compound NOT metabolized
7 | Clc1cccc(Cl)c1N=C1NCCN1 [CLONIDINE] | Compound NOT metabolized | Compound NOT metabolized | Compound NOT metabolized |  |  | Compound NOT metabolized | Compound NOT metabolized | Compound NOT metabolized | Compound NOT metabolized | Compound NOT metabolized | Compound NOT metabolized | Compound NOT metabolized | Compound NOT metabolized | Compound NOT metabolized | Compound metabolized | Compound metabolized | Compound NOT metabolized | Compound metabolized
8 | CN1CCN(C2=Nc3cc(Cl)ccc3Nc3ccccc32)CC1 [CLOZAPINE] | Compound NOT metabolized | Compound NOT metabolized |  |  | Compound NOT metabolized | Compound NOT metabolized | Compound NOT metabolized | Compound NOT metabolized | Compound NOT metabolized | Compound NOT metabolized | Compound NOT metabolized | Compound NOT metabolized | Compound NOT metabolized | Compound NOT metabolized | Compound NOT metabolized | Compound NOT metabolized | Compound NOT metabolized | Compound NOT metabolized
9 | C[N+]12CCC(CC1)C(OC(=O)C(O)(c1ccccc1)c1ccccc1)C2.[Br-] (centres undefined) [CLIDINIUM BROMIDE] |  | Compound NOT metabolized | Compound NOT metabolized |  | Compound NOT metabolized | Compound NOT metabolized |  | Compound NOT metabolized | Compound NOT metabolized | Compound NOT metabolized |  | Compound NOT metabolized |  | Compound NOT metabolized |  | Compound NOT metabolized | Compound NOT metabolized | 
10 | Clc1ccc(Cn2c(CN3CCCC3)nc3ccccc32)cc1 [CLEMIZOLE] | Compound NOT metabolized | Compound NOT metabolized |  | Compound NOT metabolized | Compound NOT metabolized | Compound NOT metabolized | Compound NOT metabolized | Compound NOT metabolized | Compound NOT metabolized | Compound NOT metabolized |  | Compound NOT metabolized | Compound NOT metabolized | Compound NOT metabolized | Compound NOT metabolized | Compound NOT metabolized | Compound NOT metabolized | Compound NOT metabolized
